Data: PubChem BioAssay AID670 (University of Pittsburgh Molecular Library Screening Center, 2007)
pIC50: −log10 of the molar value.

Biological target: M-phase inducer phosphatase 2 (Homo sapiens) (UniProt P30305)
Assay: Cdc25B phosphatase blockers with beta-mercaptoethanol – biochemical, beta-mercaptoethanol present, catalytic domain, IC50, Cdc25B inhibitor project, late-stage follow-up (AID 670)
Conditions: recombinant Cdc25B phosphatase activity

Chain of M-phase inducer phosphatase 2 (Homo sapiens) (P30305 whole entry, looked up, the tested form may be a part): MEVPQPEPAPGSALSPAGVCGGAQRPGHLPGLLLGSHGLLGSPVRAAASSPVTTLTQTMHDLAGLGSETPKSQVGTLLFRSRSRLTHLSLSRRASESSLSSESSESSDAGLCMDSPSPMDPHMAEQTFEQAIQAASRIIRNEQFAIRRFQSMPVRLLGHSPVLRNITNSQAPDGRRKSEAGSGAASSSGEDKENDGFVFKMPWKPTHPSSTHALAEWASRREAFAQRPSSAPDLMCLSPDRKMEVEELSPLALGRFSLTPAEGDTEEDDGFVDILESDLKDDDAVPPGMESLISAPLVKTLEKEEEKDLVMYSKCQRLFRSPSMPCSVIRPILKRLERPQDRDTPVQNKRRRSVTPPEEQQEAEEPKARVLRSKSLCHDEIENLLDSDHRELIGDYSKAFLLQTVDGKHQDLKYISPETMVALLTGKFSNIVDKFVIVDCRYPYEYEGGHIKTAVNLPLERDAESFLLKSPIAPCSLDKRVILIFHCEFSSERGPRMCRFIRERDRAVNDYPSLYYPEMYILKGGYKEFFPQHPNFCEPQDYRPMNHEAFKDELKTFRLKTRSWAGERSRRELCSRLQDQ

Row | pIC50 | Compound
1 | 5.42 | O=C(OC1CCCCC1)c1ccc2c(c1)C1C=CCC1C(C(=O)O)N2 (configuration not stated)
2 | 5.09 | COc1cccc2c1NC(C(=O)O)C1CC=CC21 (configuration not stated)
